Data from ChEMBL document CHEMBL3045885, “Evaluation of antileishmanial activities of triglycerides isolated from roots of Moringa stenopetala” (Med Chem Res, 2013).
In brackets after ≈: the same amount, converted by molar mass.

Key:
Leishmania aethiopica [1] = experiment: Antileishmanial activity against promastigote form of Leishmania aethiopica MHOM/ET/82/117-82 […] after 72 hr; type: functional, organism-based; details: MHOM/ET/82/117-82, 72 h
Leishmania aethiopica [2] = experiment: Antileishmanial activity against amastigote form of Leishmania aethiopica MHOM/ET/82/117-82 infected in BALB/c mouse peritoneal exudate macrophages after 5 days; type: functional, organism-based; details: MHOM/ET/82/117-82, 120 h

Row | SMILES | IC50 (Leishmania aethiopica [1]) [µg/mL] | IC50 (Leishmania aethiopica [2]) [µg/mL]
1 | CCCCCCCCCCCCCCCCOP(=O)([O-])OCC[N+](C)(C)C [MILTEFOSINE] | 0.136 (≈ 0.334 µM) | 0.121 (≈ 0.297 µM)
2 | CCCCC/C=C\C/C=C\CCCCCCCC(=O)OCC(COC(=O)CCCCCCC/C=C\C/C=C\CCCCC)OC(=O)CCCCCCC/C=C\CCCCCCCC | 0.079 (≈ 0.0896 µM) | 40 (≈ 45.4 µM)
3 | C[C@@H]1[C@H](O)[C@@H](C)/C=C/C=C/C=C/C=C/C=C/C=C/C=C/[C@H](O[C@@H]2O[C@H](C)[C@@H](O)[C@H](N)[C@@H]2O)C[C@@H]2O[C@](O)(C[C@@H](O)C[C@@H](O)[C@H](O)CC[C@@H](O)C[C@@H](O)CC(=O)O[C@H]1C)C[C@H](O)[C@H]2C(=O)O [AMPHOTERICIN B] | 0.004 (≈ 0.00433 µM) | 0.032 (≈ 0.0346 µM)
4 | CCCCC/C=C\C/C=C\CCCCCCCC(=O)OC(COC(=O)CCCCCCC/C=C\CCCCCCCC)COC(=O)CCCCCCC/C=C\CCCCCCCC | 242 (≈ 274 µM) | 26.8 (≈ 30.3 µM)
